Results published in patent US20100034839A1, “METHODS FOR TREATING VIRAL DISORDERS” (priority 2008, published 2010).
No end group written: not given here. *: point of attachment. Biotin = O=C1N[C@H]2[C@H](CS[C@H]2CCCCC(=O)*)N1

Experiments:
mouse splenic B cells = test: TLR activation of mouse splenic B cells: ectopic CLIP in MHC class II; type: cell-based; conditions: for exogenous CLIP expression on activated mouse B cells: treatment in vitro with Toll ligand, FIG. 12d
Method: FIG. 12 depicts TLR activation of mouse splenic B cells results in ectopic CLIP in MHC class II. FIG. 12a: LPS activation of spleen cells from B6.129 mice (H-2b). B cells are detected by staining with PE conjugated anti-mouse B220, shown on Y-axis, versus staining with 15G4-FITC anti-mouse CLIP/I-Ab, as shown on the X-axis. A representative of four experiments at unique time points, 0 to 72 hours by 24-hour increments, left to right, is shown. FIG. 12b (linear representation from FIG. 12a): changes in percentages of CLIP+ B cells, left Y-axis, and quantitative depiction of increasing mean fluorescence intensity of CLIP/I-Ab staining, right Y-axis. FIG. 12c: antigen receptor engagement increases cell surface MHC class II but not ectopic CLIP. B6.129 splenocytes, untreated or treated in vitro with anti-immunoglobulin (as a surrogate for antigen) or CpG-ODN were stained with anti-mouse B220-PE versus 15G4-FITC anti-mouse CLIP/I-Ab (bars, left Y-axis) or with anti-mouse B220-PE versus anti-mouse MHC class II-FITC (I-Ab) (line graph, right Y-axis). FIG. 12d: toll ligands 9, 10 used to activate cells, listed from top down, Poly I:C, Pam3Cys, R848, LPS, CpG-ODN, and no treatment, as indicated. Shown are percentages of CLIP+ B cells in splenocytes stimulated […] from B6.129 mice, left panel; H2M-deficient mice, middle panel; Ii-deficient mice, right panel.
Total splenocytes, from either B6.129, Ii-deficient, or H2M-deficient mice were cultured with LPS for 24, 48, 72, or 96 hours as indicated. Cells were harvested and stained by two-color fluorescence using 15G4-FITC anti-mouse CLIP/I-A^b versus anti-mouse B220 PE.
Freshly isolated splenocytes, single cell suspensions of lymph node cells, resting (or activated) B cells, or primed B cells were isolated from B6.129, Ii-deficient, or H2M-deficient mice and cultured in 24 well plates in complete RPMI medium, with or without the appropriate Toll ligand, at 10^6 cells/ml. Cells were cultured for 24, 48, 72, 96, or up to 144 hours. Cells were harvested and stained by flow cytometric analysis using either a Beckman Coulter Excel or a Beckman Coulter FC500 flow cytometer. Cells were stained by two-color fluorescence using 15G4-FITC anti-mouse CLIP/I-A^b versus anti-mouse B220 PE. For co-culture experiments (5×10^5) were combined with T cells (5×10^4) in 24 well plates in complete medium, with or without the appropriate antigen. Experiments with 3A9, 2A11 or A6.A2 employed 3 mg/ml tryptic digest of HEL as a source of pre-processed antigen, i.e., peptide. Cultures were incubated overnight at […] in a humidified 5% CO2, 95% air incubator.
Multi-parameter flow cytometric analysis for the fluorescent detection of ectopic CLIP, mouse B220, human CD19 or CD20, human CLIP, human HLA-DR, and human CLIP or apoptosis were performed using a Beckman Coulter Excel or a Beckman Coulter FC500 flow cytometer (Beckman Coulter, Hialeah, Fla.). Mouse splenic cells were cultured in complete RPMI for the times indicated. Resting, primed, or activated B cells were cultured in the presence of T cells (vide supra). At the end of 16 h of culture, the cells were harvested and washed. Ethidium bromide (detected by red fluorescence) was added immediately before analysis of each tube. The cells were analyzed by first gating using forward vs. side scatter then using increased fluorescence as a measure of detection of the indicated cell surface antigens.

[1] = test system: human B cells from peripheral blood mononuclear cells (PBMC); test: TLR activation of human B cells in PBMC cultures: ectopic CLIP; type: cell-based; conditions: PBMC from five healthy donors, 24 hours, 5 μg per ml
Method: (§1) FIG. 13 depicts TLR activation results in ectopic CLIP expression on human B cells from peripheral blood mononuclear cells (PBMC) cultures. FIG. 13a: human PBMC from five donors were cultured for 24 hours with toll ligands (CpG-ODN, LPS, Pam3Cys, and Poly I:C) and were stained with a pan anti-HLA-DR-FITC antibody (values of isotype controls were subtracted from the specific stains, ΔMFI). FIG. 13b: cells were stained using anti-human CLIP-FITC versus CD19-PE (values of isotype controls were subtracted from the specific stains, ΔMFI). For FIGS. 13a & 13b: nil vs. CpG p=0.06821; nil vs. LPS p=0.0390; nil vs. PAM p=0.0124. FIG. 13c: cells were stained for CLIP-FITC versus CD19-PE as described for FIG. 13b. The data represent the percent of total PBMC that are CLIP+ B cells subsequent to treatment. For FIG. 13c: nil vs. CpG p=0.0058; nil vs. LPS p=0.0254. […]
(§2) PBMC were prepared from a total of seven adult normal donors, five for examining the effects of TLR binding on the percentage of ectopic CLIP^+ B cells and changes in mean fluorescence intensity of the CLIP staining resulting from TLR stimulation with CpG-ODN, LPS, Pam-3-Cys, and Poly I:C. […] Cells were analyzed using either a BD FacsCalibur, for the five samples, or a Coulter FC500 for the two tissue typed samples. […]

[2] = test system: CLIP^+ B cells in human PBMC; test: Peptide replacement of CLIP on R848-activated human PBMC B cells; type: cell-based; conditions: PBMC of two donors cultured with R848 for 48 hours with peptide
Method: as §1, §2

[3] = test system: cell surface CLIP on Raji and Daudi cells; test: Competition of synthetic peptides with cell surface CLIP (Fitc anti-human CLIP); type: cell-based; conditions: biotinylated competing peptide
Excerpt: Based on a computational model comparing the peptide content of TNP mixture and identifying those peptides that would have the likeliest ability to compete for the peptide/antigen binding site for MHC class II (human HLA-DR, DP, and DQ), several peptide candidates were synthesized and examined for activity. The purpose of the study was to determine if synthetic peptides can compete for binding with CLIP peptides as measured with either Fitc anti-human CLIP antibody or, comparatively in the case of biotinylated peptides, with Streptavidin.
Cell Culture Conditions: The Raji and Daudi cell lines were purchased from American Type Culture Collection, were thawed, and grown in RPMI 1640 medium supplemented with standard supplements, including 10% fetal calf serum, gentamycin, penicillin, streptomycin, sodium pyruvate, HEPES buffer, 1-glutamine, and 2-ME.
Protocol: Cells were plated into a 12 well plate with 3 mls total volume containing approximately 1.5×10^6/well for Daudi cells and 3.0×10^6/well for Raji cells. Treatment groups included no treatment as control; MKN 3 and MKN 5 at 50 microMolar final concentration based on the reported molarity of the synthesized compounds.
The cells were incubated at 37° C. in an atmosphere containing 5% CO2 and approximately 92% humidity. The cells were incubated for 4 and 24 hours. At each time point, the cells from that experimental time were harvested and stained for flow cytometric analysis of cell surface expression of CLIP (MHC Class II invariant peptide, human) by using the commercially available (Becton/Dickinson/PHarmingen) anti-human CLIP Fitc. Catalogue #555981 versus Streptavidin.
Harvested cells were stained using standard staining procedure that called for a 1:100 dilution of Fitc-anti-human CLIP or isotype control versus 1:200 dilution of the commercially prepared Streptavidin. Following staining on ice for 25 minutes, cells were washed with PBS/FCS and resuspended in 100 microliters and added to staining tubes containing 400 microliters of PBS. Samples were acquired and analyzed on a Coulter Excel Flow Cytometer.
In the Histogram analyses of FIGS. 5-7 the Y axis represents cell number of the 5000 live cells versus the X axis which is a reflection of relative Fitc fluorescence versus Streptavidin-PE (eBioscience, Cat. #12-4317) that will bind with high affinity to cell-bound biotinylated peptides. The distance between the histogram from the isotype control staining versus the histogram reflecting the specific stain and is a measure of level of cell surface CLIP or the biotinylated peptide when stained with Streptavidin on a population of live Raji or Daudi cells as indicated.

Raji or Daudi cells = test: Cell surface CLIP and CD74 levels after MKN1 (bioCLIP); type: cell-based, human
Method: The ability of MKN1 (bioCLIP) to alter cell surface CLIP and CD74 levels was also determined using Raji or Daudi cells.

B cell surface CLIP = B cell surface CLIP after 2-Deoxyglucose and dichloroacetate (FIG. 4); type: cell-based

With lipopolysaccharide [LPS] the “exogenous CLIP associated with MHC class II on splenic B cells” value (mouse splenic B cells; in vitro stimulation of resting mouse splenocytes, 0 to 72 hours) was “time-dependent increase in exogenous CLIP associated with MHC class II”, the “exogenous CLIP expression on activated mouse B cells” value (“exogenous CLIP expression” below) (mouse splenic B cells) was “resulted in exogenous CLIP expression on the activated mouse B cells” and the “ectopic CLIP on human B cells” value [1] was “Statistically significant increases in ectopic CLIP”.

`CCOCc1nc2c(N)nc3ccccc3c2n1CC(C)(C)O` [R848, imidazoquinoline resiquimod] was tested, and the “exogenous CLIP expression” value (mouse splenic B cells) was “resulted in exogenous CLIP expression on the activated mouse B cells”.

With “(S)-(2,3-bis(palmitoyloxy)-(2RS)-propyl)-N-palmitoyl-(R)-Cys-(S)-Ser(S)-Lys4-OH, trihydrochloride [Pam3Cys]” the “exogenous CLIP expression” value (mouse splenic B cells) was “resulted in exogenous CLIP expression on the activated mouse B cells”.

With ANSGIIGDITEEVGGQY [VGV-pB] the “percentage of CLIP^+ B cells and level of CLIP per B cell” value [2] was “reduced the frequency of CLIP^+ B cells and the level of CLIP per cell in one individual but not the other”.

With KALVQNDTLLQVKG [SEQ ID NO 1] the “cell surface bound CLIP” value ([3]; 4 hours) was “small decreases in cell surface bound CLIP” and the “cell surface bound CLIP” value ([3]; 24 hours) was “significant decreases”.

With “SGGGSKMRMATPLLMQALY (Biotin-SGGGSKMRMATPLLMQALY) [MKN1]” the “cell surface CLIP and CD74 levels” value (Raji or Daudi cells) was “alters cell surface CLIP and CD74 levels”.

For “polyinosinic:polycytidylic acid [Poly I:C]”, the “exogenous CLIP expression” value (mouse splenic B cells) was “resulted in exogenous CLIP expression on the activated mouse B cells”.

In the case of `O=CC[C@@H](O)[C@H](O)[C@H](O)CO` [2-Deoxyglucose, 2-deoxy-D-glucose], the “B cell surface CLIP” value (B cell surface CLIP) is reported as “affects B cell surface CLIP”.
